Experimental data from US20110189318A1, “METHODS FOR ENHANCING THE EXPRESSION OF INTRACELLULAR REDOX-ASSOCIATED FACTORS” (priority 2010, published 2011).

Columns and labels:
thioredoxin superfamily = assay: Screen for flavonoid compounds enhancing expression of thioredoxin superfamily in keratinocytes; assay type: cell-based; conditions: normal human epidermal keratinocytes, 10 μM, 24 hours; FIG. 3
Procedure: (§1) Normal human epidermal keratinocytes (KK-4009, KURABO) were cultured in Defined Keratinocyte-SFM medium (10744-019, GIBCO) with 5% CO2 under high humidity at 37° C. For the cells with 100% of final density, the medium was replaced with EpiLife™ Calcium-Free Phenol Red Free medium (M-EPICF/PRF-500, KURABO) whose calcium concentration had been adjusted to 1.5 mM. Twenty-four hours later, each of the following agents was added so as to have a final concentration of 10 μM.
Twenty-four hours after adding the above agents, the mRNA expression levels of the redox-associated factors were quantified by the same method as Example 1.

thioredoxin reductase = assay: Thioredoxin reductase activity in lysates of treated keratinocytes; assay type: cell-based; conditions: normal human epidermal keratinocytes, 10 μM, 24 hours, relative to control; FIG. 5
Procedure: Normal human epidermal keratinocytes (KK-4009, KURABO) were cultured in Defined Keratinocyte-SFM medium (10744-019, GIBCO) with 5% CO2 under high humidity at 37° C. For the cells with 100% of final density, the medium was replaced with EpiLife™ Calcium-Free Phenol Red Free medium (M-EPICF/PRF-500, KURABO) whose calcium concentration had been adjusted to 1.5 mM. Twenty-four hours later, kaempferol (K0018, Tokyo Chemical Industry Co., Ltd) or quercetin (173-00403, Wako Pure Chemical Industries, Ltd.) was added so as to have a final concentration of 10 μM. Twenty-four hours after adding the agents, the cells were dissolved in lysis buffer, and the insoluble fraction was removed by centrifugation at 14,000 rpm, 4° C. for 15 minutes. The amount of total protein in the soluble fraction was quantified, and then thioredoxin reductase activity was measured by the method of Arne Holmgren et al. (METHODS IN ENZYMOLOGY, 1995, 252, 199-208).

[1] = test system: thioredoxin reductase and glutathione reductase; assay: mRNA expression of redox-associated factors in skin-equivalent models (q-PCR); assay type: cell-based, human; conditions: epidermal layer, 2 μM or 10 μM, 24 hours, FIG. 2
Procedure: Skin-equivalent models were made from normal human keratinocytes (Invitrogen), normal human fibroblasts (ATCC) and collagen I (Sigma), and cultured in Dulbecco's Modified Eagle's Medium (D-MEM) (Invitrogen) with 5% CO2 under high humidity at 37° C. Two μM or 10 μM kaempferol was added into the culture medium, and the models were cultured for twenty-four hours. Then RNA was isolated from epidermal layer of the skin-equivalent models by using a QIAGEN mRNA isolation kit. Subsequently, mRNAs of thioredoxin reductase and glutathione reductase, and 36B4 as an internal standard, were quantified by q-PCR (quantitative PCR by Bio-Rad MyiQ™ single color real time PCR detection system) using the Real-time PCR kit (Bio-Rad). The primers were purchased from QIAGEN (TXNRD2: #QT00070371; GSR; #QT00038325). The amounts of thioredoxin reductase and glutathione reductase were divided by the mRNA amount of 36B4 to obtain the mRNA expression level.

IL1β = assay: Suppression of expression of inflammatory cytokine IL1β mRNA in keratinocytes; assay type: cell-based; conditions: normal human epidermal keratinocytes, kaempferol 10 μM, extracts 0.1%, 24 hours; FIG. 6
Procedure: Normal human epidermal keratinocytes (KK-4009, KURABO) were cultured in Defined Keratinocyte-SFM medium (10744-019, GIBCO) with 5% CO2 under high humidity at 37° C. For the cells with 100% of final density, the medium was replaced with EpiLifeTM Calcium-Free Phenol Red Free medium ([…]) in which calcium concentration had been adjusted to 1.5 mM. Twenty-four hours later, kaempferol was added to have 10 μM of final concentration and each of the following plant extracts was added to have a final concentration of 0.1%. kaempferol ([…], Tokyo Chemical Industry Co., Ltd); K. galanga extract: which is obtained by the extraction of Kaempferia galanga rhizomes with 50% 1,3-butylene glycol; Ginkgo leaf extract: which is obtained by resolving 50% ethanol extract from Ginkgo biloba L. leaves in 1,3-butylene glycol. Twenty-four hours after adding the above agents, RNA was isolated by the same method as Example 1, and the mRNA expression level of the inflammation-associated factor (IL1β) was quantified. The used primers are shown below. The mRNA amount of IL1β was divided by the mRNA amount of the ribosomal protein to obtain the mRNA expression level.

[2] = test system: redox-associated factors (thioredoxin reductase, thioredoxin, glutathione reductase, glutaredoxin); assay: mRNA expression of redox-associated factors in normal human epidermal keratinocytes (RT-PCR); assay type: cell-based; conditions: 10 μM, 24 hours, compared with vitamin E and lipoic acid, FIG. 1
Procedure: as §1, with “kaempferol (K0018, Tokyo Chemical Industry Co., Ltd), vitamin E (95240, FULKA), or lipoic acid ((+/−)-α-lipoic acid (T1395, SIGMA)” for “each of the following agents”
Twenty-four hours after adding the above agents, RNA was isolated by using QIAZOL Lysis Reagent (79306, QIAGEN) and purified by using RNeasy Kit (74106, QIAGEN). Subsequently, mRNAs of thioredoxin reductase, thioredoxin, glutathione reductase, glutaredoxin, and the ribosomal protein as an internal standard were quantified by the LightCycler™ software (Roche) using QuantiTect™ SYBR Green RT-PCR Kit (204243, QIAGEN). The Sequences of the used primers are shown below.
The mRNA amounts of thioredoxin reductase, thioredoxin, glutathione reductase and glutaredoxin were divided by the mRNA amount of the ribosomal protein to obtain the mRNA expression levels.

SMILES	expression of the thioredoxin superfamily (mRNA expression level) (thioredoxin superfamily)	thioredoxin reductase activity (thioredoxin reductase)	expression of the redox-associated factors (mRNA expression level) [1]	suppression of the inflammatory cytokine IL1β (mRNA expression level) (IL1β)	expression of the redox-associated factors (mRNA expression level) [2]
O=c1c(O)c(-c2ccc(O)c(O)c2)oc2cc(O)cc(O)c12 [quercetin, Quercetin]	significantly enhance	enhance	–	–	–
O=c1c(O)c(-c2cc(O)c(O)c(O)c2)oc2cc(O)cc(O)c12 [Myricetin, reference compound]	does not have such a function	–	–	–	–
O=c1c(O)c(-c2ccc(O)cc2)oc2cc(O)cc(O)c12 [kaempferol, Kaempferol]	significantly enhance	enhance	significantly enhanced	suppression	significantly enhanced
